According to patent US20070299072A1, “KV1.5 POTASSIUM CHANNEL INHIBITORS” (Wyeth, priority 2006, published 2007):

What follows are compounds tested against T1, Kv1.5 (Homo sapiens, UniProt P22460) (assay: Kv1.5 Patch Clamp EP (whole cell patch clamp; single point at 1 μM and IC50)). Conditions: single point at 1.0 μM, Kv1.5 stably over expressed in HEK or LTK- cells.
T1 construct: expressed in transfected cells; host or cells: HEK or LTK- cells
Format: cell-based
Description: The external solution is standard Tyrodes solution. […] Inhibition was measured at the end of the 1 second pulses and expressed relative to controls. Initial Kv1.5 inhibition is estimated by single point determinations done at 1 μM.

T1 sequence (P22460 whole entry): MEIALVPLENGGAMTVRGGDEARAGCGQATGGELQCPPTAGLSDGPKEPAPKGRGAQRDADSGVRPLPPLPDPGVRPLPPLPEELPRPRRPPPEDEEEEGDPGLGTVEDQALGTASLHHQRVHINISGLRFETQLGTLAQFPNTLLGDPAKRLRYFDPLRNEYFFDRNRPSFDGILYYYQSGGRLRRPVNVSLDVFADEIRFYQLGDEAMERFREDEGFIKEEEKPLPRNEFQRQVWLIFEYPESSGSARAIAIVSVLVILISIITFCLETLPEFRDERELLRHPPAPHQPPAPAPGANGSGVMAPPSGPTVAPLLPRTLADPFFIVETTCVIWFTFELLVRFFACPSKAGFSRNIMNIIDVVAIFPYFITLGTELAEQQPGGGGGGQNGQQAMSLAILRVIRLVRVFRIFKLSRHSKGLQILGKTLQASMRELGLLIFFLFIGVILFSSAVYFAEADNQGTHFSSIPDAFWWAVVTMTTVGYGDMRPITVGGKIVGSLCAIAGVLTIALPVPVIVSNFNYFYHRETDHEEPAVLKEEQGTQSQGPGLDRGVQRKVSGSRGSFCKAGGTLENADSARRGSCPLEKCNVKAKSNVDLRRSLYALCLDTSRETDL

SMILES | inhibition at 1 µM
CN1C(c2ccc(C3CC3)cc2)N(CCc2ccc(OC(F)(F)F)cc2)C(=O)C12CCN(C(=O)OC(C)(C)C)CC2 (stereo not drawn) [Compound 77, tert-butyl 2-(4-cyclopropylphenyl)-1-methyl-4-oxo-3-{2-[4-(trifluoromethoxy)phenyl]ethyl}-1,3,8-triazaspiro[4.5]decane-8-carboxylate] | 7%
COc1ccc(CCN2C(=O)C3(CCN(CC(N)=O)CC3)N(C)C2c2ccc(OC(F)F)cc2)cc1 (stereo not drawn) [Compound 57, 2-{2-(4-Difluoromethoxyphenyl)-3-[2-(4-methoxyphenyl)ethyl]-1-methyl-4-oxo-1,3,8-triaza-spiro[4.5]dec-8-yl}acetamide] | 25%
COc1ccc(CCN2C(=O)C3(CCNCC3)N(C)C2c2ccc(C(C)(C)C)cc2)cc1 (stereo not drawn) [Compound 2, 2-(4-tert-Butylphenyl)-3-[2-(4-methoxyphenyl)ethyl]-1-methyl-1,3,8-triaza-spiro[4.5]decan-4-one] | 6%
COc1ccc(CCN2C(=O)C3(CCNCC3)N(C)C2c2ccc(OC(F)F)cc2)cc1 (stereo not drawn) [Compound 3, 2-(4-Difluoromethoxyphenyl)-3-[2-(4-methoxyphenyl)ethyl]-1-methyl-1,3,8-triaza-spiro[4.5]decan-4-one] | 6%
COc1ccc(CCN2C(=O)C3(CCN(C(=O)OC(C)(C)C)CC3)N(C)C2c2ccc(OC(F)F)cc2)cc1 (stereo not drawn) [Compound 40, tert-Butyl 2-(4-difluoromethoxyphenyl)-3-[2-(4-methoxyphenyl)ethyl]-1-methyl-4-oxo-1,3,8-triazaspiro[4.5]decane-8-carboxylate] | 22%
COc1ccc(CCN2C(=O)C3(CCN(C(=O)OC(C)(C)C)CC3)N(C)C2Cc2ccc(C(C)(C)C)cc2)cc1 (stereo not drawn) [Compound 97, tert-butyl 2-(4-tert-butylbenzyl)-3-[2-(4-methoxyphenyl)ethyl]-1-methyl-4-oxo-1,3,8-triazaspiro[4.5]decane-8-carboxylate] | 16%
COc1ccc(C2NC3(CCN(C(=O)OC(C)(C)C)CC3)C(=O)N2CCCc2ccccc2)cc1 (stereo not drawn) [Compound 87, tert-butyl 2-(4-methoxyphenyl)-4-oxo-3-(3-phenylpropyl)-1,3,8-triazaspiro[4.5]decane-8-carboxylate] | 5%
COc1ccc(CCN2C(=O)C3(CCN(C(=O)C(C)(C)N)CC3)N(C)C2c2ccc(C3CC3)cc2)cc1 (stereo not drawn) [Compound 59, 8-(2-Amino-2-methylpropionyl)-2-(4-cyclopropylphenyl)-3-[2-(4-methoxyphenyl)ethyl]-1-methyl-1,3,8-triaza-spiro[4.5]decan-4-one] | 11%
COc1ccc(CCN2C(=O)C3(CCN(C(=O)OC(C)(C)C)CC3)N(C)C2c2ccc(C(C)(C)C)cc2)cc1 (stereo not drawn) [Compound 38, tert-Butyl 2-(4-tert-butylphenyl)-3-[2-(4-methoxyphenyl)ethyl]-1-methyl-4-oxo-1,3,8-triazaspiro[4.5]decane-8-carboxylate] | 28%
CCS(=O)(=O)N1CCC2(CC1)NC(c1ccc(C(C)(C)C)cc1)N(CCc1ccc(OC)cc1)C2=O (stereo not drawn) [Compound 94, 2-(4-tert-butylphenyl)-8-(ethylsulfonyl)-3-[2-(4-methoxyphenyl)ethyl]-1,3,8-triazaspiro[4.5]decan-4-one] | 12%
COc1ccc(CCN2C(=O)C3(CCN(C(=O)C4CC4)CC3)NC2c2ccc(C(C)(C)C)cc2)cc1 (stereo not drawn) [Compound 88, 2-(4-tert-butylphenyl)-8-(cyclopropylcarbonyl)-3-[2-(4-methoxyphenyl)ethyl]-1,3,8-triazaspiro[4.5]decan-4-one] | 13%
COc1ccc(CCN2C(=O)C3(CCN(C(=O)OC(C)(C)C)CC3)NC2c2ccc(C3CC3)cc2)cc1 (stereo not drawn) [Compound 64, 2-(4-cyclopropylphenyl)-3-[2-(4-methoxyphenyl)ethyl]-4-oxo-1,3,8-triaza-spiro[4.5]decane-8-carboxylic acid tert-butyl ester] | 36%
